From US12522597B2, “Methods and compositions for modulating splicing” (Skyhawk Therapeutics, Inc., priority 2019, dated 2026)

How the values were obtained:
[1] = system: MDR1-MDCK cell monolayers; assay: MDCK-MDR1 permeability assay (BBB penetration potential); assay type: in vitro ADME; settings: dog, MDCK-MDR1, 120 min, 5 μM, pH 7.4
Protocol: (§1) Each determination is performed in duplicate. […] Analytical conditions are outlined below.

MDR1 = assay: as above; assay type: in vitro ADME; settings: dog; for efflux ratio at 120 min, 5 μM: MDCK-MDR1, pH 7.4, MDCK-MDR1: Efflux; for Papp A→B at 120 min, 5 μM: MDCK-MDR1, pH 7.4, MDCK-MDR1: Papp A-B; for Papp B→A at 120 min, 5 μM: MDCK-MDR1, pH 7.4, MDCK-MDR1: Papp B-A
Protocol: as §1

mHTT protein = mHTT protein assay (2B7-MW1, Mesoscale Discovery); assay type: cell-based, human; settings: GM04724 (CAG 70/20) Huntington's disease patient lymphoblast cells, 48 hours, 2B7-MW1 MSD; read-out: HTT Potency - Protein EC50 mHTT (average)
Protocol: Compounds are tested on GM04724 (CAG 70/20) Huntington's disease patient lymphoblast cells at doses ranging from 10 μM to 0.6 nM. 4,500 cells/well are seeded in 384 well plates. One plate replica is carried out for parallel viability testing by CellTiter Glo (CTG). Compounds are incubated for 48 hours, mHTT protein levels are assessed by the 2B7-MW1 assay via Mesoscale Discovery (MSD) as previously reported (Macdonald et al., 2014). The antibody pair is comprised of previously characterized monoclonals (2B7 and MW1) interrogating two regions for HTT conformation and biological properties: the N17 domain and the polyQ domain (Baldo et al., 2012; Ko et., 2001). 2B7-MW1 is dependent on subject/animal specific levels of HTT at the time of treatment. 2B7-MW1 is dependent on polyQ expansion (e.g., the higher the expansion the higher the signal) and on mHTT size (e.g., a similar polyQ will give higher signal with smaller HTT size). The viability readout is carried out by CTG according to the manufacturer's instructions.

Compound	MDCK-MDR1: % Recov A-B [1]	MDCK-MDR1: % Recov B-A [1]	efflux ratio at 120 min, 5 μM (MDR1)	Papp A→B at 120 min, 5 μM (MDR1)	Papp B→A at 120 min, 5 μM (MDR1)	EC50 (mHTT protein)
Oc1cc2nccnc2cc1-c1ccc(O[C@@H]2C[C@H]3CCC[C@H](N3)[C@@H]2F)nn1 (single isomer, unassigned) [104-ENT1]	95%	92%	6	7.17 ×10⁻⁶ cm/s	45.7 ×10⁻⁶ cm/s	501 to 10000 nM
Cn1cnc(-c2ccc(-c3ccc(O[C@H]4C[C@]5(C)CCC[C@@](C)(N5)[C@H]4F)nn3)c(O)c2)cc1=O (single isomer, unassigned) [139-ENT2]	88%	87%	15	1.97 ×10⁻⁶ cm/s	28.7 ×10⁻⁶ cm/s	0.01 to 15 nM
Oc1cc(-c2nnco2)c(F)cc1-c1ccc(O[C@@H]2C[C@H]3CC[C@H](N3)[C@@H]2F)nn1 (single isomer, unassigned) [142-ENT2]	101%	121%	6	9.4 ×10⁻⁶ cm/s	54.5 ×10⁻⁶ cm/s	51 to 100 nM
Cn1ccc(-c2ccc(-c3ccc(O[C@H]4C[C@@H]5CCC[C@@H](N5)[C@H]4F)nn3)c(O)c2)nc1=O (single isomer, unassigned) [107-ENT2]	97%	103%	100	0.11 ×10⁻⁶ cm/s	11.2 ×10⁻⁶ cm/s	101 to 500 nM
Oc1cc2cnccc2cc1-c1ccc(O[C@H]2C[C@@H]3CCC[C@@H](N3)[C@H]2F)nn1 (single isomer, unassigned) [80-ENT2]	72%	84%	3	9.2 ×10⁻⁶ cm/s	32.1 ×10⁻⁶ cm/s	501 to 10000 nM
Cn1ccc(=O)c2cc(O)c(-c3ccc(O[C@H]4C[C@]5(C)CCC[C@@](C)(N5)[C@H]4F)nn3)cc21 (stereo in doubt) [132-ENT2, 7-(6-(((1R,2R,3S,5S)-2-fluoro-1,5-dimethyl-9-azabicyclo[3.3.1]nonan-3-yl)oxy)pyridazin-3-yl)-6-hydroxy-1-methylquinolin-4(1H)-one]	93%	95%	126	0.11 ×10⁻⁶ cm/s	13.4 ×10⁻⁶ cm/s	101 to 500 nM
Oc1cc(-c2ccc3nncn3c2)ccc1-c1ccc(O[C@@H]2C[C@H]3CCC[C@H](N3)[C@@H]2F)nn1 (single isomer, unassigned) [73-ENT1]	94%	85%	92	0.44 ×10⁻⁶ cm/s	40.9 ×10⁻⁶ cm/s	101 to 500 nM
CN(C)C(=O)c1cc2cc(O)c(-c3ccc(O[C@H]4C[C@]5(C)CCC[C@@](C)(N5)[C@H]4F)nn3)cc2o1 (single isomer, unassigned) [155-ENT2]	102%	102%	17	3.84 ×10⁻⁶ cm/s	63.7 ×10⁻⁶ cm/s	501 to 10000 nM
Oc1cc(-n2ncc3ccccc32)ccc1-c1ccc(O[C@@H]2C[C@H]3CC[C@H](N3)[C@@H]2F)nn1 (single isomer, unassigned) [114-ENT1]	22%	47%	3	4.74 ×10⁻⁶ cm/s	13.5 ×10⁻⁶ cm/s	501 to 10000 nM
Oc1cc2ncccc2cc1-c1ccc(O[C@H]2C[C@@H]3CCC[C@@H](N3)[C@H]2F)nn1 (single isomer, unassigned) [103-ENT2]	98%	106%	12	5.15 ×10⁻⁶ cm/s	59.9 ×10⁻⁶ cm/s	501 to 10000 nM
Oc1cc2ccncc2cc1-c1ccc(O[C@H]2C[C@@H]3CCC[C@@H](N3)[C@H]2F)nn1 (single isomer, unassigned) [81-ENT2]	69%	81%	3	9.23 ×10⁻⁶ cm/s	26.4 ×10⁻⁶ cm/s	501 to 10000 nM
Cc1ncc(-c2ccc(-c3ccc(O[C@H]4C[C@@H]5CCC[C@@H](N5)[C@H]4F)nn3)c(O)c2)o1 (single isomer, unassigned) [93-ENT2]	67%	88%	4	9.43 ×10⁻⁶ cm/s	41.5 ×10⁻⁶ cm/s	16 to 50 nM
Cc1cnc(-c2ccc(-c3ccc(O[C@H]4C[C@@H]5CCC[C@@H](N5)[C@H]4F)nn3)c(O)c2)cn1 (single isomer, unassigned) [78-ENT2]	56%	83%	4	7.09 ×10⁻⁶ cm/s	30 ×10⁻⁶ cm/s	101 to 500 nM
Cn1cnc(-c2ccc(-c3ccc(O[C@@H]4C[C@H]5CCC[C@H](N5)[C@@H]4F)nn3)c(O)c2)cc1=O (single isomer, unassigned) [138-ENT1]	86%	98%	47	1.14 ×10⁻⁶ cm/s	53.9 ×10⁻⁶ cm/s	51 to 100 nM
Cc1cc(-c2ccc(-c3ccc(O[C@@H]4C[C@H]5CCC[C@H](N5)[C@@H]4F)nn3)c(O)c2)co1 (single isomer, unassigned) [98-ENT1]	9%	47%	1	1.13 ×10⁻⁶ cm/s	1.39 ×10⁻⁶ cm/s	101 to 500 nM
Cc1nnc(-c2ccc(-c3ccc(O[C@@H]4C[C@H]5CCC[C@H](N5)[C@@H]4F)nn3)c(O)c2)s1 (single isomer, unassigned) [95-ENT1]	72%	78%	10	4.88 ×10⁻⁶ cm/s	48.8 ×10⁻⁶ cm/s	101 to 500 nM
Cn1cc(-c2ccc(-c3ccc(O[C@H]4C[C@@H]5CCC[C@@H](N5)[C@H]4F)nn3)c(O)c2)c(F)n1 (single isomer, unassigned) [109-ENT2]	51%	80%	4	6.3 ×10⁻⁶ cm/s	24.5 ×10⁻⁶ cm/s	16 to 50 nM
CNC(=O)c1ccc2cc(-c3ccc(O[C@H]4C[C@@H]5CCC[C@@H](N5)[C@H]4F)nn3)c(O)cc2n1 (single isomer, unassigned) [136-ENT1]	88%	101%	28	2.27 ×10⁻⁶ cm/s	62.3 ×10⁻⁶ cm/s	0.01 to 15 nM
Cc1ncn(-c2ccc(-c3ccc(O[C@H]4C[C@@H]5CCC[C@@H](N5)[C@H]4F)nn3)c(O)c2)n1 (single isomer, unassigned) [70-ENT2]	94%	105%	5	7.47 ×10⁻⁶ cm/s	40.1 ×10⁻⁶ cm/s	101 to 500 nM
Cc1cc(-c2ccc(-c3ccc(O[C@H]4C[C@@H]5CCC[C@@H](N5)[C@H]4F)nn3)c(O)c2)ccn1 (single isomer, unassigned) [88-ENT2]	51%	71%	4	5.13 ×10⁻⁶ cm/s	21.5 ×10⁻⁶ cm/s	16 to 50 nM
